Key:
lethal endotoxin shock = test: Survival of Swiss Webster mice following lethal endotoxin dose and Tβ4; type: in vivo
Protocol: Swiss-Webster mice 4-6 weeks of age (20-25g) were housed 6 per cage. The mice were divided into 2 groups: endotoxic mice (endotoxin 60 mg/kg i.p. in acute treatment) and endotoxic mice treated with Tβ4, 5 minutes and 2, 4, 6, 8, 10, 12, 14, 16, 18, 20, 22, 24 hours post administration of the endotoxin. Survival was recorded 2 times a day for 7 days.
Swiss-Webster mice 4-6 weeks of age (20-25g) were divided to the following 4 groups.
1. Mice treated with a lethal dose of endotoxin (60 mg/kg).
2. Mice treated with 60 mg/kg endotoxin followed by an injection of 100 μg Tβ4 (5 minutes post administration of endotoxin).
3. Mice treated with 60 mg/kg endotoxin followed by 2 injections of 100 μg/Tβ4 (immediately following and 2 hours post administration of endotoxin).
4. […]

IL-1α = IL-1α serum levels after lethal endotoxin dose; type: in vivo, Swiss-Webster mice
Description: (§1) Using the same methods and materials as in examples 1-3, the effect which Tβ4 has on blood levels of IL-1α, TNF-α, PAG, Txβ2 and 6-keto-PGF1 α, which are pathological mediators of endotoxin induced lethality, was studied.

PAF = PAF blood levels (plasma, serum) after lethal endotoxin dose; type: in vivo, Swiss-Webster mice; details: after a lethal dose of endotoxin
Description: as §1

Txβ2 = Txβ2 plasma levels after lethal endotoxin dose; type: in vivo, Swiss-Webster mice
Description: as §1

6-keto-PGF1α = 6-keto-PGF1α plasma levels after lethal endotoxin dose; type: in vivo, Swiss-Webster mice; details: after a lethal dose of endotoxin
Description: as §1

TNF-α = TNF-α serum levels after lethal endotoxin dose; type: in vivo, Swiss-Webster mice
Description: as §1

[1] = after a lethal dose of endotoxin
[2] = endotoxin 60 mg/kg + Tβ4 100 μg administered simultaneously, 1 hr
[3] = endotoxin 60 mg/kg + Tβ4 100 μg administered simultaneously, 3 hr

Substance: Thymosin β4 [Tβ4]
- activity on endotoxin lethality (lethal endotoxin shock; 10 μg Tβ4): sometimes shown positive activity
- protection against lethal endotoxin shock (lethal endotoxin shock; Example 1, endotoxin 60 mg/kg i.p.): protected against lethal endotoxin shock
- survival rate (lethal endotoxin shock; Example 1, endotoxin 60 mg/kg i.p., Tβ4 5 minutes and 2 to 24 hours post endotoxin, survival recorded for 7 days): ≤ 100%
- survival rate (lethal endotoxin shock; Example 2, endotoxin 60 mg/kg, Tβ4 administered 3 times post endotoxin): 100%
- Survival (No. mice alive) (lethal endotoxin shock; Table I, endotoxin 60 mg/kg + Tβ4 100 μg 1x (5 min post endotoxin), 24 hrs, 7 mice at 0 hrs): 4
- Survival (No. mice alive) (lethal endotoxin shock; Table I, endotoxin 60 mg/kg + Tβ4 100 μg 2x (immediately and 2 hours post endotoxin), 24 hrs, 7 mice at 0 hrs): 4
- Survival (No. mice alive) (lethal endotoxin shock; Table I, endotoxin 60 mg/kg + Tβ4 100 μg 3x (immediately, 2 and 4 hours post endotoxin), 24 hrs, 7 mice at 0 hrs): 7
- Survival (No. mice alive) (lethal endotoxin shock; Table II, Tβ4 10 μg 3x immediately following, 2 and 4 hrs after endotoxin, 48 hrs, 8 mice at 0 hrs): 6
- Survival (No. mice alive) (lethal endotoxin shock; Table II, Tβ4 10 μg 3x immediately following, 2 and 4 hrs after endotoxin, 72 hrs, 8 mice at 0 hrs): 6
- Survival (No. mice alive) (lethal endotoxin shock; Table II, Tβ4 10 μg 3x immediately following, 2 and 4 hrs after endotoxin, 96 hrs, 8 mice at 0 hrs): 6
- Survival (No. mice alive) (lethal endotoxin shock; Table II, Tβ4 10 μg 3x immediately following, 2 and 4 hrs after endotoxin, 120 hrs, 8 mice at 0 hrs): 6
- Survival (No. mice alive) (lethal endotoxin shock; Table II, Tβ4 100 μg 3x at 2, 4 and 6 hrs after endotoxin, 48 hrs, 8 mice at 0 hrs): 4
- Survival (No. mice alive) (lethal endotoxin shock; Table II, Tβ4 100 μg 3x at 2, 4 and 6 hrs after endotoxin, 72 hrs, 8 mice at 0 hrs): 4
- Survival (No. mice alive) (lethal endotoxin shock; Table II, Tβ4 100 μg 3x at 2, 4 and 6 hrs after endotoxin, 96 hrs, 8 mice at 0 hrs): 4
- Survival (No. mice alive) (lethal endotoxin shock; Table II, Tβ4 100 μg 3x at 2, 4 and 6 hrs after endotoxin, 120 hrs, 8 mice at 0 hrs): 4
- Survival (No. mice alive) (lethal endotoxin shock; Table II, Tβ4 100 μg 3x immediately following, 2 and 4 hrs after endotoxin, 48 hrs, 8 mice at 0 hrs): 8
- Survival (No. mice alive) (lethal endotoxin shock; Table II, Tβ4 100 μg 3x immediately following, 2 and 4 hrs after endotoxin, 72 hrs, 8 mice at 0 hrs): 8
- Survival (No. mice alive) (lethal endotoxin shock; Table II, Tβ4 100 μg 3x immediately following, 2 and 4 hrs after endotoxin, 96 hrs, 8 mice at 0 hrs): 8
- Survival (No. mice alive) (lethal endotoxin shock; Table II, Tβ4 100 μg 3x immediately following, 2 and 4 hrs after endotoxin, 120 hrs, 8 mice at 0 hrs): 8
- Survival (No. mice alive) (lethal endotoxin shock; Table II, endotoxin 60 mg/kg + Tβ4 10 μg 3x immediately following, 2 and 4 hrs after endotoxin, 24 hrs, 8 mice at 0 hrs): 8
- Survival (No. mice alive) (lethal endotoxin shock; Table II, endotoxin 60 mg/kg + Tβ4 100 μg 3x at 2, 4 and 6 hrs after endotoxin, 24 hrs, 8 mice at 0 hrs): 7
- Survival (No. mice alive) (lethal endotoxin shock; Table II, endotoxin 60 mg/kg + Tβ4 100 μg 3x immediately following, 2 and 4 hrs after endotoxin, 24 hrs, 8 mice at 0 hrs): 8
- Survival (No. mice alive) (lethal endotoxin shock; Table III, Tβ4 10 μg 3x i.p., 48 hrs, 10 mice at 0 hrs): 3
- Survival (No. mice alive) (lethal endotoxin shock; Table III, Tβ4 10 μg 3x i.p., 72 hrs, 10 mice at 0 hrs): 3
- Survival (No. mice alive) (lethal endotoxin shock; Table III, Tβ4 10 μg 3x i.p., 96 hrs, 10 mice at 0 hrs): 3
- Survival (No. mice alive) (lethal endotoxin shock; Table III, Tβ4 10 μg 3x i.p., 5 days, 10 mice at 0 hrs): 3
- Survival (No. mice alive) (lethal endotoxin shock; Table III, Tβ4 10 μg 3x i.p., 6 days, 10 mice at 0 hrs): 3
- Survival (No. mice alive) (lethal endotoxin shock; Table III, Tβ4 20 μg 3x i.p., 48 hrs, 10 mice at 0 hrs): 4
- Survival (No. mice alive) (lethal endotoxin shock; Table III, Tβ4 20 μg 3x i.p., 72 hrs, 10 mice at 0 hrs): 4
- Survival (No. mice alive) (lethal endotoxin shock; Table III, Tβ4 20 μg 3x i.p., 96 hrs, 10 mice at 0 hrs): 3
- Survival (No. mice alive) (lethal endotoxin shock; Table III, Tβ4 20 μg 3x i.p., 5 days, 10 mice at 0 hrs): 3
- Survival (No. mice alive) (lethal endotoxin shock; Table III, Tβ4 20 μg 3x i.p., 6 days, 10 mice at 0 hrs): 3
- Survival (No. mice alive) (lethal endotoxin shock; Table III, Tβ4 50 μg 3x i.p., 48 hrs, 10 mice at 0 hrs): 7
- Survival (No. mice alive) (lethal endotoxin shock; Table III, Tβ4 50 μg 3x i.p., 72 hrs, 10 mice at 0 hrs): 7
- Survival (No. mice alive) (lethal endotoxin shock; Table III, Tβ4 50 μg 3x i.p., 96 hrs, 10 mice at 0 hrs): 7
- Survival (No. mice alive) (lethal endotoxin shock; Table III, Tβ4 50 μg 3x i.p., 5 days, 10 mice at 0 hrs): 7
- Survival (No. mice alive) (lethal endotoxin shock; Table III, Tβ4 50 μg 3x i.p., 6 days, 10 mice at 0 hrs): 7
- Survival (No. mice alive) (lethal endotoxin shock; Table III, endotoxin 60 mg/kg + Tβ4 10 μg 3x i.p. immediately following, 2 and 4 hrs after endotoxin, 24 hrs, 10 mice at 0 hrs): 3
- Survival (No. mice alive) (lethal endotoxin shock; Table III, endotoxin 60 mg/kg + Tβ4 20 μg 3x i.p. immediately following, 2 and 4 hrs after endotoxin, 24 hrs, 10 mice at 0 hrs): 5
- Survival (No. mice alive) (lethal endotoxin shock; Table III, endotoxin 60 mg/kg + Tβ4 50 μg 3x i.p. immediately following, 2 and 4 hrs after endotoxin, 24 hrs, 10 mice at 0 hrs): 9
- survival of mice treated with endotoxin (lethal endotoxin shock; Tβ4 20 μg administered three times): partially increased the survival
- survival of mice treated with endotoxin (lethal endotoxin shock; Tβ4 50 μg administered three times): partially increased the survival
- effect on endotoxin toxicity (lethal endotoxin shock; Tβ4 given immediately following, 2 and 4 hours after endotoxin treatment): protective effect
- IL-1α (serum levels) (IL-1α; [1]): decreased
- IL-1α (serum levels) (IL-1α; [2]): 147,5 ± 15,1 pg/ml
- IL-1α (serum levels) (IL-1α; [3]): 207,5 ± 19,3 pg/ml
- PAF plasma levels (PAF): decreased
- Txβ2 (plasma levels) (Txβ2; [1]): decreased
- Txβ2 (plasma levels) (Txβ2; endotoxin 60 mg/kg + Tβ4 100 μg administered simultaneously, 0.5 hr): 209 ± 9,5 pg/ml
- Txβ2 (plasma levels) (Txβ2; [2]): 607 ± 53 pg/mL
- Txβ2 (plasma levels) (Txβ2; endotoxin 60 mg/kg + Tβ4 100 μg administered simultaneously, 2 hr): 196 ± 18 pg/mL
- Txβ2 (plasma levels) (Txβ2; [3]): 112 ± 9 pg/mL
- 6-keto-PGF1 α plasma levels (6-keto-PGF1α): decreased
- TNF-α (serum levels) (TNF-α; [1]): decreased
- TNF-α (serum levels) (TNF-α; endotoxin 60 mg/kg + Tβ4 100 μg administered immediately after endotoxin, 1 hr): 807 pg/mL
- TNF-α (serum levels) (TNF-α; endotoxin 60 mg/kg + Tβ4 100 μg administered immediately after endotoxin, 3 hr): 591 pg/mL
- TNF-α (serum levels) (TNF-α; endotoxin 60 mg/kg + Tβ4 100 μg administered immediately after endotoxin, 5 hr): 496 pg/mL
